Data: article PMC8588467, “Rational Design 2-Hydroxypropylphosphonium Salts as Cancer Cell Mitochondria-Targeted Vectors: Synthesis, Structure, and Biological Properties” (Molecules, 2021)
Read-outs that look alike come from different tables or passages of the source.

Assays:
[1] = tested on: HuTu 80 (human duodenal adenocarcinoma); test: MTT cytotoxicity, HuTu 80; assay type: cell-based; conditions: for IC50: mean ± SD, triplicate; for SI HuTu 80: IC50 normal cells (WI38) / IC50 cancer cells, ns = no selectivity
[2] = tested on: M-HeLa (human cervix epitheloid carcinoma); test: MTT cytotoxicity, M-HeLa; assay type: cell-based; conditions: for IC50: MTT, mean ± SD, triplicate; for SI M-HeLa: IC50 normal cells (WI38) / IC50 cancer cells, ns = no selectivity
[3] = tested on: MCF-7 (human breast adenocarcinoma); test: MTT cytotoxicity, MCF-7; assay type: cell-based; conditions: for IC50: mean ± SD, triplicate; for SI MCF-7: IC50 normal cells (WI38) / IC50 cancer cells, ns = no selectivity
[4] = tested on: A549 (human lung carcinoma); test: MTT cytotoxicity, A549; assay type: cell-based; conditions: for IC50: mean ± SD, triplicate; for SI A549: IC50 normal cells (WI38) / IC50 cancer cells, ns = no selectivity
[5] = tested on: T98G glioblastoma cell line; test: MTT cytotoxicity, T98G; assay type: cell-based, human; conditions: for IC50: MTT, mean ± SD, triplicate; for SI T98G: IC50 normal cells (WI38) / IC50 cancer cells, ns = no selectivity
[6] = tested on: WI38 (diploid human embryo lung); test: MTT cytotoxicity, normal cells WI38; assay type: cell-based; conditions: mean ± SD, triplicate, read-out: WI38 IC50 (normal cell line)
[7] = tested on: HuTu-80 cells; test: Induction of apoptosis, annexin V/propidium iodide flow cytometry; assay type: cell-based, human; conditions: IC50/2, 48-h incubation
Description: Apoptosis is one of the most significant mechanisms used for screening new anti-cancer agents. The apoptosis-inducing effect was carried out on lead compounds 3a, b, k, j and 4c showing high selectivity against HuTu-80 cells. The studies were carried out by flow cytometry at concentrations IC50/2 and IC50 (Figure 4). […] The percentage of apoptotic cells in early and late phases was slightly changed with increase compound concentration up to IC50.
HuTu 80 cells at 1 × 10^6 cells/well in a final volume of 2 mL were seeded into six-well plates. After 48 h of incubation, various concentrations of compounds 3a,b and 3k were added to wells.
The cells were harvested at 2000 rpm for 5 min and, then, washed twice with ice-cold PBS, followed by resuspension in binding buffer. Next, the samples were incubated with 5 μL of annexin V-Alexa Fluor 647 (Sigma–Aldrich, St. Louis, MO, USA) and 5 μL of propidium iodide for 15 min at room temperature in the dark. Finally, the cells were analyzed by flow cytometry (Guava easy Cyte, MERCK, Rahway, NJ, USA) within 1 h. The experiments were repeated three times.

[8] = tested on: HuTu-80 cells; test: Mitochondrial membrane potential, JC-10 flow cytometry; assay type: cell-based, human; conditions: for % cells with J-aggregate (red, high membrane potential) / % cells with J-monomer (green, decreased membrane potential): JC-10; for effect on mitochondrial membrane potential: more pronounced with increase of concentration up to IC50
Source text: Apoptosis induction by 3a, b, k, j and 4c through the mitochondrial pathway and HuTu-80 cell line was studied by flow cytometry using the fluorescent dye JC-10 from the Mitochondria Membrane Potential Kit. JC-10 accumulated in the mitochondrial matrix and formed aggregates (J-aggregate) with red fluorescence in normal cells with a high mitochondrial membrane potential. The membrane potential decreased in apoptotic cells. JC-10 started to diffuse out from the mitochondria and converts to the monomeric form (J-monomer) and emits green fluorescence. This is recorded with a flow cytometer. […] The process became more pronounced with an increase of 3a, b, 3k, j and 4c concentrations up to IC50 (Figure 5 and Figure 6).
Cells were harvested at 2000 rpm for 5 min and then washed twice with ice-cold PBS, followed by resuspension in JC-10 (10 µg/mL) and incubation at 37 °C for 10 min. After the cells were rinsed three times and suspended in PBS, the JC-10 fluorescence was observed by flow cytometry (Guava easy Cyte, MERCK, NJ, USA).

[9] = tested on: HuTu-80 cells; test: Intracellular ROS production, CellROX Deep Red flow cytometry; assay type: cell-based, human; conditions: control 600
Source text: Increasing the production of reactive oxygen species (ROS) by compounds characterizes the mitochondrial apoptotic pathway. Mitochondria are a potential source and target of ROS. ROS lead to disruption of mitochondrial functions and, as a consequence, to irreversible cell damage. In this regard, the effect of test compounds in HuTu-80 cells on ROS production, using flow cytometry analysis and CellROX® Deep Red flow cytometry kit was investigated. Data presented in Figure 7 show a significant increase in CellROX® Deep Red fluorescence intensity. This indicates an increase in ROS production in the presence of the tested compounds.
ROS generation was investigated using flow cytometry assay and CellROX® Deep Red flow cytometry kit. For this HuTu 80 cells were harvested at 2000 rpm for 5 min and then washed twice with ice-cold PBS, followed by resuspension in 0.1 mL of medium without FBS, to which was added 0.2 μL of Cell ROX® Deep Red and incubated at 37 °C for 30 min After three times washing the cells and suspending them in PBS, the production of ROS in the cells was immediately monitored using flow cytometer Guava easy Cyte, MERCK, NJ, USA).

[10] = tested on: PC3 (human prostate adenocarcinoma); test: MTT cytotoxicity, PC3; conditions: for IC50: mean ± SD, triplicate; for SI PC3: IC50 normal cells (WI38) / IC50 cancer cells, ns = no selectivity
[11] = Homo sapiens, read-out: IC50 PC3, MTT

| Structure (SMILES) | IC50 ([1]; Homo sapiens, HuTu80, MTT) [µM] | SI HuTu 80 [1] | IC50 ([2]; Homo sapiens, M-HeLa) [µM] | SI M-HeLa [2] | IC50 ([3]; Homo sapiens, MCF7, MTT) [µM] | SI MCF-7 [3] | IC50 ([4]; Homo sapiens, A549, MTT) [µM] | SI A549 [4] | IC50 ([5]; Homo sapiens, T98G) [µM] | SI T98G [5] | IC50 ([6]; Homo sapiens, WI-38, MTT) [µM] | IC50 [10, 11] [µM] | SI PC3 [10] | IC50 ([1]; MTT) [µM] | other results |
| --- | --- | --- | --- | --- | --- | --- | --- | --- | --- | --- | --- | --- | --- | --- | --- |
| OC(CBr)C[P+](c1ccccc1)(c1ccccc1)c1ccccc1 (stereo not drawn) [3b, (3-Bromo-2-hydroxypropyl)triphenylphosphonium trifluoromethanesulfonate] | 3 ± 0.1 | 5 | 30.1 ± 2.4 | ns | 34 ± 2.6 | ns | > 100 | ns | 56 ± 4.5 | ns | 13.8 ± 1.1 | 23.3 ± 1.9 | ns |  | apoptosis induction [7]: actively induce apoptosis; % cells with J-aggregate (red, high membrane potential) ([8]; IC50, 48 h): 48.1%; % cells with J-monomer (green, decreased membrane potential) ([8]; IC50, 48 h): 51.9%; % cells with J-aggregate (red, high membrane potential) ([8]; IC50/2, 48 h): 54.5%; % cells with J-monomer (green, decreased membrane potential) ([8]; IC50/2, 48 h): 45.5%; effect on mitochondrial membrane potential [8]: decrease the mitochondrial membrane potential; CellROX Deep Red fluorescence intensity (ROS production) ([9]; IC50, 48 h): 1580; CellROX Deep Red fluorescence intensity (ROS production) ([9]; IC50/2, 48 h): 1200 |
| OC(CCl)C[P+](c1ccccc1)(c1ccccc1)c1ccccc1 (stereo not drawn) [3a, (3-Chloro-2-hydroxypropyl)triphenylphosphonium trifluoromethanesulfonate] | 10.1 ± 0.8 | 4 | 66.7 ± 5.5 | ns | 56.1 ± 4.5 | ns | 64.4 ± 4.9 | ns | 64.3 ± 5.3 | ns | 37.5 ± 3.1 | 45 ± 3.6 | ns |  | apoptosis induction [7]: actively induce apoptosis; % cells with J-aggregate (red, high membrane potential) ([8]; IC50, 48 h): 39.4%; % cells with J-monomer (green, decreased membrane potential) ([8]; IC50, 48 h): 60.6%; % cells with J-aggregate (red, high membrane potential) ([8]; IC50/2, 48 h): 40.7%; % cells with J-monomer (green, decreased membrane potential) ([8]; IC50/2, 48 h): 59.2%; effect on mitochondrial membrane potential [8]: decrease the mitochondrial membrane potential; CellROX Deep Red fluorescence intensity (ROS production) ([9]; IC50, 48 h): 1500; CellROX Deep Red fluorescence intensity (ROS production) ([9]; IC50/2, 48 h): 1000 |
| COCC(O)C[P+](c1ccccc1)(c1ccccc1)c1ccccc1 (stereo not drawn) [4a] | 26.7 ± 2.1 | 1.4 | 57.3 ± 4.7 | ns | 75.7 ± 5.9 | ns | 36 ± 2.8 | ns | 55.3 ± 4.4 | ns | 36.5 ± 2.8 | 50.3 ± 4 | ns |  |  |
| OC(CF)C[P+](c1ccccc1)(c1ccccc1)c1ccccc1 (stereo not drawn) [3c, (3-Fluoro-2-hydroxypropyl)triphenylphosphonium trifluoromethanesulfonate] | 19.1 ± 1.6 | 2.5 | 90.6 ± 8.6 | ns | 56.5 ± 4.5 | ns | > 100 | ns | 52.1 ± 4.1 | ns | 47.3 ± 3.8 | 53.5 ± 4.2 | ns |  |  |
| C=CCOCC(O)C[P+](c1ccccc1)(c1ccccc1)c1ccccc1 (stereo not drawn) [3i, (3-(Allyloxy)-2-hydroxypropyl)triphenylphosphonium trifluoromethanesulfonate] |  | 5 |  | ns |  | ns |  | ns |  | ns |  |  | ns | 7.1 ± 0.06 | IC50 [2]: 60.8 ± 5.2 µM; IC50 ([3]; MTT): 70.5 ± 5.6 µM; IC50 ([4]; MTT): 41 ± 3.3 µM; IC50 [5]: 50.4 ± 4 µM; IC50 ([6]; MTT): 34.2 ± 2.7 µM; IC50 ([10]; read-out: IC50 PC3, MTT): 71.8 ± 6.6 µM |
| COCC(O)C[P+](c1ccccc1)(c1ccccc1)c1ccccc1 (stereo not drawn) [3f, (2-Hydroxy-3-methoxypropyl)triphenylphosphonium trifluoromethanesulfonate] |  | 1.5 |  | ns |  | ns |  | ns |  | ns |  |  | ns | 23.6 ± 1.8 | IC50 [2]: 56.2 ± 4.7 µM; IC50 ([3]; MTT): 60.7 ± 4.9 µM; IC50 ([4]; MTT): 39 ± 3 µM; IC50 [5]: 60.4 ± 4.4 µM; IC50 ([6]; MTT): 35.6 ± 2.6 µM; IC50 ([10]; read-out: IC50 PC3, MTT): 55.2 ± 4.5 µM |
| OC(COCC(F)(F)C(F)F)C[P+](c1ccccc1)(c1ccccc1)c1ccccc1 (stereo not drawn) [3h, (2-Hydroxy-3-(2,2,3,3-tetrafluoropropoxy)propyl)triphenylphosphonium trifluoromethanesulfonate] | 28.9 ± 2.1 | ns | 100 ± 8.6 | ns | 64.4 ± 5 | ns | 34.3 ± 2.6 | ns | 63.4 ± 4.8 | ns | 43.7 ± 3.5 | 48.7 ± 3.7 | ns |  |  |
| OC(CI)C[P+](c1ccccc1)(c1ccccc1)c1ccccc1 (stereo not drawn) [3d, (2-Hydroxy-3-iodopropyl)triphenylphosphonium trifluoromethanesulfonate] | 9.4 ± 0.7 | 4 | 50 ± 4.3 | ns | 88.6 ± 7.1 | ns | 74.2 ± 5.6 | ns | 64 ± 4.8 | ns | 35.2 ± 2.3 | 39.1 ± 3.1 | ns |  |  |
| CCOCC(O)C[P+](c1ccccc1)(c1ccccc1)c1ccccc1 (stereo not drawn) [3g, (3-Ethoxy-2-hydroxypropyl)triphenylphosphonium trifluoromethanesulfonate] |  | 1.6 | 63.7 ± 5.2 | ns | 66.8 ± 5.3 | ns | 42.2 ± 3.2 | ns | 62.9 ± 4.6 | ns | 30.1 ± 2.3 | 48.9 ± 3.9 | ns | 18.4 ± 1.5 |  |
| CCCCCCCCCCCCCCCCCC(=O)OCC(O)C[P+](c1ccccc1)(c1ccccc1)c1ccccc1 (stereo not drawn) [3l, (2-Hydroxy-3-stearoyloxy-propyl)triphenylphosphoniumtrifluoromethanesulfonate] | 45 ± 3.5 | ns | 59.2 ± 5.1 | ns | 52.8 ± 4.2 | ns | 75.1 ± 5.7 | ns | 55.9 ± 5 | ns | 50 ± 3.9 | 53.8 ± 4.4 | ns |  |  |
| CCOCC(O)C[P+](c1ccccc1)(c1ccccc1)c1ccccc1.[I-] (stereo not drawn) [4b, (3-Ethoxy-2-hydroxypropyl)triphenylphosphonium iodide] |  | 7 |  | ns |  | ns |  | ns |  | ns |  |  | ns | 3.4 ± 0.3 | IC50 [2]: 68.4 ± 5.9 µM; IC50 ([3]; MTT): 60.3 ± 4.7 µM; IC50 ([4]; MTT): 39.1 ± 3.1 µM; IC50 [5]: 49.7 ± 4 µM; IC50 ([6]; MTT): 22.9 ± 1.9 µM; IC50 ([10]; read-out: IC50 PC3, MTT): 42.4 ± 3.3 µM |
